Experiments:
[1] = test system: Mouse Embryonic Fibroblasts, MEFs; assay: Cell cycle progression by propidium iodide flow cytometry, normal (primary) cells; assay type: cell-based; settings: 100 µM, 23hrs, compared to DMSO control (Fig. 5D vs 5C)
Protocol: Since the proteins Geminin and Cdtl are key regulators of the cell cycle, the effect of the synthetic compound on the development of the cancer cell and normal cell cycle was studied. Staining of the genetic material of the cells was performed with propidium iodide and the technique of flow cytometry was applied for their separation, based on the amount of genetic material.
MCF7 cells were used as cancer cells, whereas primary cells and particularly embryonic mouse fibroblasts (Mouse Embryonic Fibroblasts, MEFs) were used as normal cells. The cells were incubated with the synthetic chemical compound AF-615/30368009 at a concentration of 100 µM and cultured for 23hrs in 100-mm dishes, to 80% confluency. Cells which had been incubated with only DMSO were used as a negative control sample. The next day of the incubation, cells were harvested using trypsin. […] The experiments were conducted using a Becton Dickinson flow cytometer and the data were analyzed by the WinMDi software version 2.8. […]
The graphs shown in Fig. 5 are representative of at least two independent experiments. The x axis represents the intensity of the fluorescence of propidium iodide and proportionally the amount of DNA content of the cells, while the y-axis corresponds to the number of events for each phase of the cell cycle.

[2] = biological target: T1, Geminin (Homo sapiens, UniProt O75496); assay: Intracellular localization of exogenous Geminin-GFP in co-transfected MCF7 cells (fluorescence microscopy); assay type: cell-based; settings: 100µM, 24-hour incubation
T1 construct: the full length human Geminin ortholog was used; expressed in transfected cells; host or cells: MCF7
T1 sequence (O75496 1-209): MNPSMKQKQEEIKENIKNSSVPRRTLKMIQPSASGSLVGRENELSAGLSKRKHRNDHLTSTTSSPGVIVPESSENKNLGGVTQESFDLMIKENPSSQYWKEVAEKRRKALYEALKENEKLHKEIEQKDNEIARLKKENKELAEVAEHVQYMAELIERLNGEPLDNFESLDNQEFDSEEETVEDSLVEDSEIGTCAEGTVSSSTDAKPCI
From the text: A cellular assay was developed and applied using epithelial cells of breast adenocarcinoma (MCF7), for the purpose of the ex vivo study of the mechanism by which the inhibitory effect of the synthetic chemical compound affects the functional significance of the Geminin-Cdtl protein interaction.
Therefore, in order to determine the mechanism of action of the synthetic chemical compound AF-615/30368009, its effect on the Geminin nucleo-cytoplasmic translocation was studied ex vivo.
For the purposes of this experiment, the full length human Geminin ortholog was used as well as the protein Cdt1^DEL which corresponds to the human ortholog which lacks the amino acid residues 170-190. […]
For the implementation of the cellular assay, an appropriate number of cells were seeded onto glass coverslips and cells were allowed to culture in order to adhere. […] Then, the coverslips were washed with 1x PBS buffer (2 times), mounted on microscope slides using mounting medium containing the dye DAPI (that stains only nuclei) and were observed under a fluorescence microscope. […]
The experimental design included the transient co-transfection of MCF7 cancer cells with Geminin-GFP & dhcRed and Geminin-GFP & Cdt1^DEL-dhcRed. […] The intracellular localization of Geminin was detected by the autofluorescence of the GFP molecule. […]

intracellular localization of Geminin ([2]; MCF7, co-transfection with Geminin-GFP & Cdt1^DEL-dhcRed (Fig. 4)): no detectable change
percentage of cells with nuclear localization of Geminin ([2]; MCF7, co-transfection with Geminin-GFP & dhcRed (Fig. 4)): statistically significant increase
Compound: O=C(NNC(=S)N1CCOCC1)c1cnccn1 [AF-615/30368009, N'-(morpholine-4-carbothioyl)pyrazine-2-carbohydrazide]
percentage of cells in G2/M phase [1]: mild reduction
percentage of cells in phase G0/G1 and S [1]: no significant change

— patent EP3463364B1, “PYRAZINE DERIVATIVES FOR USE IN THE TREATMENT OF DISEASES ASSOCIATED WITH CELL CYCLE DYSREGULATION” (University of Patras, priority 2016, dated 2017)
